According to patent US8945595B2, “Insect repellent and attractants” (The Regents of the University of California, priority 2009, dated 2015):

Legend:
[1] = tested on: CO2 sensitive A neuron of peg sensillum; assay: activation of CO2 sensitive neuron with a volatile odorant; type: cell-based, Aedes aegypti; settings: 1 sec puff, indicated dilution
Description: (§1) FIG. 2 depicts electrophysiology measurements of the peg sensillum on the mosquito maxillary palp. The palp, indicated in brown in the schematic of the mosquito head, has several peg sensilla. Each peg sensilla (grey club-like structure in the center) contains three olfactory neurons A, B and C as indicated, of which the ‘A’ neuron gives a robust and specific increase in frequency of action potentials in response to a stimulus of CO2. Extracellular single-unit recordings are performed by inserting a glass microelectrode into the peg sensilla, and puffing an odor such as CO2 towards the mosquito maxillary palps. The signal is amplified to obtain the trace of action potentials.
(§2) (a) Action potential traces from the peg sensillum of the maxillary palp show spike amplitudes from three neurons, where the spikes with the largest amplitude belongs to the CO2 sensitive A neuron. (b) 1 sec of the indicated dilution 2,3-butanedione is puffed to Aedes aegypti. (c) 1 sec of indicated odor is puffed to Anopheles gambiae. (d) butanone and (e) 2,3-butanedione are given to Culex quinquefasciatus at the indicated concentrations. PO=paraffin oil. n=5. Baseline activity subtracted. Error bars indicate SEM.

[2] = tested on: CO2 sensitive A neuron of peg sensillum; assay: as above; type: cell-based, Culex quinquefasciatus; settings: indicated concentrations
Description: as §1, §2

CC(=O)C(C)=O [2,3-butanedione]
activation of CO2 sensitive neuron [1]: activation
activation of CO2 sensitive neuron [2]: activation
